What was measured:
[1] = tested on: intrinsic coagulation pathway; experiment: Activated coagulation time (kaolin); format: in vivo, rat
Description: Activated Coagulation Time (Kaolin)
This test explores the intrinsic coagulation pathway. […] These tubes contain the kaolin activator. (Method HaemoTec., automated coagulation timer manufactured by MEDTRONIC HAEMOTEC Inc., Englewood, Colo., USA).

[2] = tested on: coagulation factors; experiment: Plasminogenesis, coagulation and anti Xa in the stasis-induced thrombosis model; format: in vivo, rat
Protocol: A laparotomy was performed to open the lower vena cava, on which a ligature was placed at T0, followed by subcutaneous injection of glycine betaine at T0+2 hours, followed by withdrawal of the clot and blood samples at T0+6 hours.

[3] = tested on: induced haemorrhage in rats; experiment: Anti-haemorrahgic activity with aspirin or heparin; format: in vivo, rat; conditions: glycine betaine 2-50 mg given with 100 mg aspirin or 2 mg heparin, versus aspirin or heparin alone
Protocol: This example tested anti-haemorrahgic activity using rats. Some rats received an active agent with haemorrahgic side effect, while other rats received said active agent together with a dose of betaine.
The following products were administered to rats for determining whether glycine betaine has an anti-haemorrahgic effect: • 100 mg aspirin per kg life body • 100 mg aspirin+50 mg glycine betaine per kg life body • 2 mg heparin • 2 mg heparin+50 mg glycine betaine • 2 mg heparin+10 mg glycine betaine • 2 mg heparin+2 mg glycine betaine

[4] = tested on: platelet aggregation induced with ADP; experiment: Aggregation induced with ADP; format: in vivo, rat; conditions: ADP 5 μM
Protocol: (§1) The aggregation is made in accordance to the methods of Cardinal & Flower. Pharmacol. Method. 1980, and to American Journal of Clinical Pathology, 1989; 92: 676-679, Sureney. J D. Whole Blood aggregometry. After a keeping period of 8 days, the rats are subjected to a fasting for 12 hours. Betaine is subcutaneously injected one hour before blood sampling. The rats are then anaesthetised with sodium Thiopental administered at a dose of 200 mg/Kg and the blood samples are taken by intracardiac puncture on a trisodium citrate solution (1 volume of solution at 3.8% citrate for 9 volumes of blood).
• This example evaluated aggregation induced with ADP. • Final ADP concentration 5 μM

[5] = tested on: venous thrombosis induced by stasis (lower vena cava ligature); experiment: Stasis-induced venous thrombosis, clot weight; format: in vivo, rat
Protocol: B/Stasis-induced Thrombosis A laparotomy was performed to open the lower vena cava, on which a ligature was placed at T0, followed by subcutaneous injection of glycine betaine at T0+2 hours, followed by withdrawal of the clot and blood samples at T0+6 hours. Male Wistar rats were used for these tests. They weighed between 200 and 250 grams. After an 8-day stabilisation period, the rats were subjected to fasting for 12 hours. They were then anaesthetised, glycine betaine was administered subcutaneously, and the mesentery (laser) or vena cava (stasis) was opened at the end of the experiments.

[6] = tested on: platelet aggregation induced with collagen; experiment: Aggregation induced with collagen; format: in vivo, rat; conditions: collagen 10 μgr/ml
Protocol: as §1
• This example evaluates aggregation induced with collagen. • Collagen concentration 10 μgr/ml

[7] = tested on: platelet aggregations induced by ADP, collagen, epinephrine, adrenaline, thrombin, ristocetine, arachidonic acid; experiment: Human in vivo test, induced platelet aggregations in heavy smokers; conditions: two heavy smokers, oral capsules 5 g/day during 7 days
Protocol: This example describes a human in vivo test. Two volunteers (with a weight of about 70-75 kg), considered as heavy smokers (smoking more than 10 cigarettes/day) have orally taken capsules (gastro soluble) containing 5 g anhydrous glycine betaine/day during 7 days. Before administration of the betaine, the aggregations induced by ADP, by collagen, by epinephrine, by adrenaline, by thrombin, by ristocetine and by arachidonic acid were determined. After one week of treatment, the same platelet aggregations were measured. It appeared from said tests that all the induced platelet aggregations were reduced for all said endogenous agonists of at least 30%. Better results are expected when using oral dosage form with controlled release, such as gastro insoluble, but entero soluble form.

[8] = tested on: arterial thrombosis induced by laser beam in the mesenteric microcirculation of the rat; experiment: Laser-induced thrombosis in the mesenteric microcirculation; format: in vivo; conditions: oral 50 mg/kg

With `C[N+](C)(C)CC(=O)O` [Glycine betaine] the “Activated coagulation time” value ([1]; 10 mg/kg subcutaneous) was 128 s, the Activated coagulation time ([1]; 10 mg/kg subcutaneous, after 24 hours) was 71 ± 3.51 s and the Activated coagulation time ([1]; 20 mg/kg subcutaneous, after 24 hours) was 154.66 ± 11.01 s. The “Activated coagulation time” value ([1]; 30 mg/kg subcutaneous) was 179 s, the “Activated coagulation time” value ([1]; 50 mg/kg subcutaneous) was 215 s and the “Activated coagulation time relative to control” value ([1]; 50 mg/kg subcutaneous) was “four times higher”. For the same compound, the Activated coagulation time ([1]; oral 50 mg/kg, 1 hour) was 96 ± 11.27 s, the Activated coagulation time ([1]; oral 50 mg/kg, 6 hours) was 124.66 ± 9.29 s and the Activated coagulation time ([1]; oral 50 mg/kg, 24 hours) was 64.66 ± 7.37 s. For the same compound, the Activated coagulation time ([1]; oral 50 mg/kg, 48 hours) was 55.66 ± 7.02 s, the ACT ([2]; 1 mg/kg) was 29.1 ± 2.3 s and the “Anti Xa” value ([2]; 1 mg/kg) was 0.08 ± 0.1 units/ml. For the same compound, the Fibrinogen ([2]; 1 mg/kg) was 2.63 ± 0.3 g/L, the Plasminogenesis ([2]; 1 mg/kg) was 2.44 ± 0.58% and the Quick time ([2]; 1 mg/kg) was 16.2 ± 1.2 s. For the same compound, the ACT ([2]; 2.5 mg/kg) was 31.2 ± 2.6 s, the “Anti Xa” value ([2]; 2.5 mg/kg) was 0.14 ± 0.10 units/ml and the Fibrinogen ([2]; 2.5 mg/kg) was 2.2 ± 0.17 g/L. The Plasminogenesis ([2]; 2.5 mg/kg) was 2 ± 0.15%, the Quick time ([2]; 2.5 mg/kg) was 16.6 ± 0.7 s and the ACT ([2]; 5 mg/kg) was 33.5 ± 1.9 s. For the same compound, the “Anti Xa” value ([2]; 5 mg/kg) was 0.35 ± 0.15 units/ml, the Fibrinogen ([2]; 5 mg/kg) was 2.32 ± 0.33 g/L and the Plasminogenesis ([2]; 5 mg/kg) was 1.66 ± 0.58%. The Quick time ([2]; 5 mg/kg) was 15.6 ± 0.4 s, the “Bleeding time after induced haemorrhage” value [3] was “bleeding time was reduced” and the Amplitude ([4]; 2.5 mg/kg) was 13 +/− 0.82 ohms. The Velocity ([4]; 2.5 mg/kg) was 5.75 +/− 0.96 ohm/minute, the Amplitude ([4]; 5 mg/kg) was 7.25 +/− 0.96 ohms and the Velocity ([4]; 5 mg/kg) was 4.75 +/− 0.5 ohm/minute. The Amplitude ([4]; 10 mg/kg) was 0 +/− 0 ohms, the Velocity ([4]; 10 mg/kg) was 0 +/− 0 ohm/minute and the Clot weight ([5]; 1 mg/kg s.c.) was 3.1 ± 0.4 mg. The Clot weight ([5]; 2.5 mg/kg s.c.) was 1.63 ± 0.76 mg, the Clot weight ([5]; 5 mg/kg s.c.) was 0.76 ± 0.4 mg and the Amplitude ([6]; 2.5 mg/kg) was 13.75 +/− 0.96 ohms. For the same compound, the Velocity ([6]; 2.5 mg/kg) was 9.25 +/− 2.63 ohm/minute, the Amplitude ([6]; 5 mg/kg) was 5.5 +/− 1.29 ohms and the Velocity ([6]; 5 mg/kg) was 4.5 +/− 1 ohm/minute. The Amplitude ([6]; 10 mg/kg) was 1.5 +/− 1.29 ohms, the Velocity ([6]; 10 mg/kg) was 2 +/− 0.82 ohm/minute and the “Reduction of induced platelet aggregations (all agonists)” value [7] was “at least 30%”. The Number of emboles ([8]; 1 hour) was 0 +/− 0, the Embolisation time ([8]; 48 hours) was 2 ± 0 min and the “Number of laser firing” value ([8]; 48 hours) was 2.33 +/− 0.57.
